Values quoted from earlier work, collected in patent US9023417B2, “Use of a polyamine-poor composition for the production of a medical human food” (Univeriste de Rennes 1, priority 2003, dated 2015).

System: Escherischia coli

Compound | inhibition of the synthesis of polyamines in Escherischia coli
C[C@](N)(CCCN)C(=O)O [Alpha-methylornithine, alpha-methylornithine] | inhibiting the synthesis of polyamines
NCCC[C@](N)(C(=O)O)C(F)F [a-DFMO, 2-difluoromethylornithine] | not the case
